Test results reported in patent US10597388B2, “Pyridazinone herbicides” (FMC CORPORATION, priority 2014, dated 2020).

What was measured:
Assay in all cases: Test E greenhouse herbicide test, pre- and postemergence
Type in all cases: in vivo
[1] = system: Italian ryegrass (Lolium multiflorum)
Method in brief: (§1)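 Greenhouse pots; preemergence on silt loam, postemergence on plants 1- to 4-leaf (2 to 18 cm) grown in peat, vermiculite and nutrient medium. Test chemicals formulated in non-phytotoxic solvent with surfactant. Ratings taken after 14 to 21 d.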

[2] = system: barnyardgrass (Echinochloa crus-galli)
Method in brief: as §1

[3] = system: beggarticks (hairy beggarticks, Bidens pilosa)
Method in brief: as §1

[4] = system: corn (Zea mays)
Method in brief: as §1

[5] = system: crabgrass, large (large crabgrass, Digitaria sanguinalis); conditions: Preemergence
Method in brief: as §1

[6] = system: dayflower (Virginia (VA) dayflower, Commelina virginica)
Method in brief: as §1

[7] = system: field bindweed (Convolvulus arvensis)
Method in brief: as §1

[8] = system: goosegrass (Eleusine indica); conditions: Preemergence
Method in brief: as §1

[9] = system: momingglory (Ipomoea coccinea); conditions: Preemergence
Method in brief: as §1

[10] = system: nightshade (eastern black nightshade, Solanum ptycanthum); conditions: Preemergence
Method in brief: as §1

[11] = system: panicum, fall (fall panicum, Panicum dichotomiflorum)
Method in brief: as §1

[12] = system: surinam grass (Brachiaria decumbens); conditions: Preemergence
Method in brief: as §1

[13] = system: wild poinsettia (Euphorbia heterophylla)
Method in brief: as §1

[14] = 62 g ai/ha, Postemergence, scale 0 to 100 (0 no effect, 100 complete control)
[15] = 62 g ai/ha, Preemergence, scale 0 to 100 (0 no effect, 100 complete control)
[16] = 125 g ai/ha, Postemergence, scale 0 to 100 (0 no effect, 100 complete control)
[17] = 125 g ai/ha, Preemergence, scale 0 to 100 (0 no effect, 100 complete control)
[18] = 250 g ai/ha, Postemergence, scale 0 to 100 (0 no effect, 100 complete control)
[19] = Postemergence, 31 g ai/ha, visual, scale 0 no effect to 100 complete control
[20] = Preemergence, 31 g ai/ha, scale 0 to 100, 0 no effect, 100 complete control
[21] = Preemergence, 250 g ai/ha, visual, scale 0 no effect to 100 complete control
[22] = 62 g ai/ha, scale 0 to 100 (0 no effect, 100 complete control)
[23] = 125 g ai/ha, scale 0 to 100 (0 no effect, 100 complete control)
[24] = 250 g ai/ha, visual, scale 0 no effect to 100 complete control
[25] = 31 g ai/ha, scale 0 to 100, 0 no effect, 100 complete control

CCOC(=O)Oc1c(C)nn(C)c(=O)c1-c1c(C)sc2ccc(C)cc12 [Compound 82]
0: Plant response rating, Barnyardgrass [2, 20] | Plant response rating, Corn [4, 14] | Plant response rating, Corn [4, 15] | Plant response rating, Corn [4, 16] | Plant response rating, Corn [4, 17] | Plant response rating, Corn [4, 18] | Plant response rating, Corn [4, 19] | Plant response rating, Corn [4, 20] | Plant response rating, Dayflower, VA [6, 20] | Plant response rating, Poinsettia, Wild [13, 15] | Plant response rating, Poinsettia, Wild [13, 17] | Plant response rating, Poinsettia, Wild [13, 20]
100: Plant response rating, Ryegrass, Italian [1, 17] | Plant response rating, Ryegrass, Italian [1, 21] | Plant response rating, Beggarticks [3, 15] | Plant response rating, Beggarticks [3, 17] | Plant response rating, Beggarticks [3, 20] | Plant response rating, Beggarticks [3, 21] | Plant response rating, Field Bindweed [7, 17] | Plant response rating, Morningglory [9, 24] | Plant response rating, Nightshade [10, 24] | Plant response rating, Panicum, Fall [11, 21]
65: Plant response rating, Dayflower, VA [6, 18] | Plant response rating, Field Bindweed [7, 20] | Plant response rating, Panicum, Fall [11, 14] | Plant response rating, Surinam Grass [12, 22]
70: Plant response rating, Ryegrass, Italian [1, 14] | Plant response rating, Crabgrass, Large [5, 22] | Plant response rating, Goosegrass [8, 23] | Plant response rating, Morningglory [9, 25] | Plant response rating, Panicum, Fall [11, 19]
75: Plant response rating, Ryegrass, Italian [1, 16] | Plant response rating, Ryegrass, Italian [1, 20] | Plant response rating, Panicum, Fall [11, 16] | Plant response rating, Panicum, Fall [11, 18]
35: Plant response rating, Dayflower, VA [6, 21] | Plant response rating, Surinam Grass [12, 25]
60: Plant response rating, Dayflower, VA [6, 16]
98: Plant response rating, Beggarticks [3, 16] | Plant response rating, Beggarticks [3, 18] | Plant response rating, Nightshade [10, 22] | Plant response rating, Nightshade [10, 23] | Plant response rating, Panicum, Fall [11, 17]
85: Plant response rating, Field Bindweed [7, 18] | Plant response rating, Field Bindweed [7, 19] | Plant response rating, Surinam Grass [12, 23]
5: Plant response rating, Corn [4, 21] | Plant response rating, Dayflower, VA [6, 15] | Plant response rating, Dayflower, VA [6, 17]
95: Plant response rating, Ryegrass, Italian [1, 15] | Plant response rating, Field Bindweed [7, 16] | Plant response rating, Field Bindweed [7, 21] | Plant response rating, Panicum, Fall [11, 15]
30: Plant response rating, Barnyardgrass [2, 17] | Plant response rating, Barnyardgrass [2, 19] | Plant response rating, Poinsettia, Wild [13, 14]
15: Plant response rating, Barnyardgrass [2, 15]
20: Plant response rating, Goosegrass [8, 25] | Plant response rating, Poinsettia, Wild [13, 21]
50: Plant response rating, Ryegrass, Italian [1, 19] | Plant response rating, Barnyardgrass [2, 16] | Plant response rating, Barnyardgrass [2, 18] | Plant response rating, Dayflower, VA [6, 14] | Plant response rating, Field Bindweed [7, 15] | Plant response rating, Poinsettia, Wild [13, 18]
25: Plant response rating, Goosegrass [8, 22]
90: Plant response rating, Beggarticks [3, 14] | Plant response rating, Beggarticks [3, 19] | Plant response rating, Crabgrass, Large [5, 24] | Plant response rating, Goosegrass [8, 24] | Plant response rating, Morningglory [9, 23] | Plant response rating, Nightshade [10, 25] | Plant response rating, Panicum, Fall [11, 20] | Plant response rating, Surinam Grass [12, 24]
80: Plant response rating, Ryegrass, Italian [1, 18] | Plant response rating, Crabgrass, Large [5, 23] | Plant response rating, Field Bindweed [7, 14] | Plant response rating, Morningglory [9, 22]
40: Plant response rating, Barnyardgrass [2, 14] | Plant response rating, Barnyardgrass [2, 21] | Plant response rating, Dayflower, VA [6, 19] | Plant response rating, Poinsettia, Wild [13, 16] | Plant response rating, Poinsettia, Wild [13, 19]

C#CCOC(=O)Oc1c(C)nn(C)c(=O)c1-c1c(C)sc2ccc(C)cc12 [Compound 87]
98: Plant response rating, Ryegrass, Italian [1, 17] | Plant response rating, Field Bindweed [7, 15] | Plant response rating, Nightshade [10, 23] | Plant response rating, Nightshade [10, 24] | Plant response rating, Panicum, Fall [11, 21]
90: Plant response rating, Beggarticks [3, 20] | Plant response rating, Morningglory [9, 24] | Plant response rating, Nightshade [10, 22] | Plant response rating, Panicum, Fall [11, 15]
15: Plant response rating, Corn [4, 21] | Plant response rating, Surinam Grass [12, 22] | Plant response rating, Poinsettia, Wild [13, 15] | Plant response rating, Poinsettia, Wild [13, 17]
50: Plant response rating, Morningglory [9, 23] | Plant response rating, Nightshade [10, 25]
10: Plant response rating, Barnyardgrass [2, 17] | Plant response rating, Dayflower, VA [6, 17] | Plant response rating, Surinam Grass [12, 25]
40: Plant response rating, Field Bindweed [7, 20]
75: Plant response rating, Ryegrass, Italian [1, 20] | Plant response rating, Goosegrass [8, 24] | Plant response rating, Surinam Grass [12, 24]
0: Plant response rating, Barnyardgrass [2, 15] | Plant response rating, Barnyardgrass [2, 20] | Plant response rating, Corn [4, 15] | Plant response rating, Corn [4, 20] | Plant response rating, Crabgrass, Large [5, 22] | Plant response rating, Crabgrass, Large [5, 25] | Plant response rating, Dayflower, VA [6, 15] | Plant response rating, Dayflower, VA [6, 20] | Plant response rating, Goosegrass [8, 22] | Plant response rating, Goosegrass [8, 25] | Plant response rating, Poinsettia, Wild [13, 20]
80: Plant response rating, Surinam Grass [12, 23]
95: Plant response rating, Ryegrass, Italian [1, 15] | Plant response rating, Field Bindweed [7, 17] | Plant response rating, Panicum, Fall [11, 20]
20: Plant response rating, Corn [4, 17] | Plant response rating, Morningglory [9, 25] | Plant response rating, Poinsettia, Wild [13, 21]
65: Plant response rating, Crabgrass, Large [5, 23] | Plant response rating, Crabgrass, Large [5, 24]
100: Plant response rating, Ryegrass, Italian [1, 21] | Plant response rating, Beggarticks [3, 15] | Plant response rating, Beggarticks [3, 17] | Plant response rating, Beggarticks [3, 21] | Plant response rating, Field Bindweed [7, 21] | Plant response rating, Panicum, Fall [11, 17]
35: Plant response rating, Barnyardgrass [2, 21] | Plant response rating, Dayflower, VA [6, 21] | Plant response rating, Morningglory [9, 22]
60: Plant response rating, Goosegrass [8, 23]
